Source: patent US5304474A, “Hydrophobic peptide esters and amides” (Board of Regents, The University of Texas System, priority 1991, dated 1994)
Peptide text beside a SMILES is read from it.

Experiments:
[1] = Generation of dipeptide methyl esters from amino acid methyl esters by MP or PMN (TLC); type: in vitro ADME, human; conditions: equal concentrations of Leu-OMe, Val-OMe or Phe-OMe added
Method: MP or PMN (prepared as in Example 1) at a concentration of 25×10^6 per ml were suspended in PBS and incubated with 25 mM Leu-OMe for 20 minutes at 22~C. Cell suspensions were then centrifuged at 1000 g for 10 minutes and the supernatants harvested and freeze-dried at -70~C., 100 millitorr atmospheric pressure. In some experiments, Leu-OMe-treated MP or PMN were sonicated to increase the yield of the reaction product. Samples were then extracted with methanol for application to thin layer chromatography (TLC) plates ([…]×20 cm^2, Analtech, Newark, Del.). Following development with chloroform/methanol/acetic acid (19 1:12.5 by volume), 1 cm bands were eluted with methanol, dried under nitrogen, and resuspended in 1 ml PBS. Mass spectra were obtained with a Finnegan Model 4021 automated EI/CI, GC/MS system coupled to an Incos data system. […]
In order to determine whether MP or PMN could generate the relevant dipeptide methyl esters from these amino acid methyl esters, TLC analysis of the supernatants of MP and PMN incubated with these compounds was carried out. […] However, when equal concentrations of Leu-OMe, Val-OMe, or Phe-OMe were added to MP or PMN, the concentrations of Val-Val-OMe generated were 50 to 80% of those found for Leu-Leu-OMe, while Phe-Phe-OMe was detected at only 10-30% of the levels of Leu-Leu-OMe. […]

[2] = test system: natural killer cells (NK); test: NK function: lysis of K562 target cells (51Cr release) after preincubation of lymphocytes with compound; conditions: lymphocytes exposed 15 minutes at room temperature (FIG. 4, FIG. 5)
Method: PBM were separated from heparinized venous blood of healthy donors by centrifugation over sodium diatrizoate-Ficoll gradients (Isolymph, Gallard-Schlesinger Chemical Mfg. Corp., Carle Place, N.Y.).
All cell exposures to the amino acids, dipeptides or their methyl esters were carried out by suspending cells in Dulbecco's phosphate buffered saline (PBS) and incubating them at room temperature with the reagent at the indicated concentration and time interval.
Percent of control cytotoxicity was calculated using the formula: [formula]

concentration generated by MP or PMN, relative to Leu-Leu-OMe [1]: 10-30%
Structure (SMILES): COC(=O)[C@H](Cc1ccccc1)NC(=O)[C@@H](N)Cc1ccccc1 [Phe-Phe-OMe] (H-Phe-Phe-OMe)
NK toxicity / effect on NK function, in words [2]: less NK toxic than either Leu-Phe-OMe or Phe-Leu-OMe
